Here are results for 40 molecules from ChEMBL document CHEMBL1155057, “Studies toward the discovery of the next generation of antidepressants. Part 6: Dual 5-HT1A receptor and serotonin transporter affinity within a class of arylpiperazinyl-cyclohexyl indole derivatives” (Bioorg Med Chem, 2008).

The structures appear in SMILES notation.

The target of test [1] is T1, 5-hydroxytryptamine receptor 1A (Homo sapiens) (UniProt P08908).
T1 sequence (whole entry): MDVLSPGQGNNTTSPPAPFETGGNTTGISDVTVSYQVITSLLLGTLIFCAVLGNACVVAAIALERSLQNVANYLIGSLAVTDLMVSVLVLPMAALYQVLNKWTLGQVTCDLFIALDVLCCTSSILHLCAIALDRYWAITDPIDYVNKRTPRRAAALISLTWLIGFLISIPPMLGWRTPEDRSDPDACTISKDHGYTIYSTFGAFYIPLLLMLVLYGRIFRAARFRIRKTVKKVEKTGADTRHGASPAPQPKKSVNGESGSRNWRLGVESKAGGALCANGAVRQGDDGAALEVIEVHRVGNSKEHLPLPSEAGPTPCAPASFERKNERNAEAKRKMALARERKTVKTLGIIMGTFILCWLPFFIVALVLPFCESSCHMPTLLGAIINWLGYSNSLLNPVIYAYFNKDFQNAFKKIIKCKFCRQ
The test can be described thus: Intrinsic activity at human 5HT1A receptor expressed in CHO cells by GTPgammaS binding assay relative to serotonin. Format: functional, cell-based. Background: GTPγS resists hydrolysis and so accumulates on activated G proteins.

The target of test [2] is Sodium-dependent serotonin transporter (Rattus norvegicus, UniProt P31652).
Sequence of Sodium-dependent serotonin transporter (P31652 whole entry): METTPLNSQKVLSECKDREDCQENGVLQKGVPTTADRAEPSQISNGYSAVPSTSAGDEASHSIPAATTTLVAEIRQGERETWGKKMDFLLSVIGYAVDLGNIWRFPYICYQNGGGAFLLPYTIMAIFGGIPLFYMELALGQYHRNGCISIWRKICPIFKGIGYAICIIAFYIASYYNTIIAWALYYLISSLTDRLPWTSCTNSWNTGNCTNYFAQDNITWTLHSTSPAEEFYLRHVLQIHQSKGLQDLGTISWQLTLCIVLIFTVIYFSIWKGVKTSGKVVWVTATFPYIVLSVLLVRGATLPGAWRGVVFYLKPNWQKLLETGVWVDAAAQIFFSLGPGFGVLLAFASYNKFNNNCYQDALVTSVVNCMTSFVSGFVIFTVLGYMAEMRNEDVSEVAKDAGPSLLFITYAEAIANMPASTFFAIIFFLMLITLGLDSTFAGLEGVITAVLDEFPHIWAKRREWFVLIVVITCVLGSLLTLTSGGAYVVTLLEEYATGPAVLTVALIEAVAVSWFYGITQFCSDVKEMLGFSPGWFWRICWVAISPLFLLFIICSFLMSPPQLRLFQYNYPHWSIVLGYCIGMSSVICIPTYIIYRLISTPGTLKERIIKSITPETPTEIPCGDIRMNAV
For test [3], the target named is T2, 5-hydroxytryptamine receptor 1A (Homo sapiens, UniProt P08908).
T2 sequence (P08908 whole entry): T1 sequence (whole entry)
Kind of test: biochemical.

The species entered for test [4] is Rattus norvegicus. The settings on record: 100 nM.
Description: Displacement of 3H]paroxetine from rat cortical alpha1 adrenergic receptor at 100 nM
Test [5] deals with Sodium-dependent serotonin transporter (Rattus norvegicus) (UniProt P31652). Kind of test: Displacement of [3H]paroxetine from rat cortical 5HTT reuptake site at 100 nM. (In general: Displacement assays read how much labelled ligand stays bound in the presence of the test substance.)
Sequence of Sodium-dependent serotonin transporter (Rattus norvegicus) (P31652 whole entry): as above
Test [6] has as its target T1, 5-hydroxytryptamine receptor 1A (Homo sapiens). The test can be described thus: Displacement of [3H]8-OH-DPAT from human 5HT1A receptor expressed in CHO cells at 1 uM. In kind it is cell-based.
Test [7] deals with Sodium-dependent serotonin transporter (Rattus norvegicus) (UniProt P31652). Kind of test: Displacement of [3H]paroxetine from rat cortical 5HTT reuptake site at 1 uM.

In test [1], `FC(F)(F)c1nc2c(N3CCN([C@H]4CC[C@@H](c5c[nH]c6ccccc65)CC4)CC3)cccc2[nH]1` gave an Emax of 0%. For the same molecule, the Ki in test [2] came to 105 nM; in test [3] it was 16.1 nM.

On to `Fc1ccc2[nH]cc([C@H]3CC[C@H](N4CCN(c5cccc6[nH]ccc56)CC4)CC3)c2c1`, for which the inhibition in test [4] came out at 16%.

On to `Cc1[nH]c2ccccc2c1[C@H]1CC[C@@H](N2CCN(c3cccc4[nH]ccc34)CC2)CC1`, for which the inhibition in test [5] turned out to be 4%.

With `Fc1ccc2[nH]cc([C@H]3CC[C@@H](N4CCN(c5cccc6ccccc56)CC4)CC3)c2c1`, the inhibition in test [6] was 46%. The molecule also came in with an Emax in test [1] of 34%. This molecule showed a Ki in test [2] of 640 nM.

`Clc1ccc2[nH]cc([C@H]3CC[C@H](N4CCN(c5cccc6[nH]ccc56)CC4)CC3)c2c1` came in with an inhibition in test [7] of 20%.

Turning to `C1=Nc2cccc(N3CCN([C@H]4CC[C@@H](c5c[nH]c6ncccc65)CC4)CC3)c2C1`, in test [3], the Ki was found to be 15.8 nM. Also, the inhibition in test [5] is 0%.

Take `COc1ccc2[nH]cc([C@H]3CC[C@H](N4CCN(c5cccc6[nH]ccc56)CC4)CC3)c2c1`: the inhibitory constant (Ki) in test [3] was determined as 2.9 nM. In test [7], this molecule returned an inhibition of 45%.

As for `c1cc(N2CCN([C@H]3CC[C@H](c4c[nH]c5ccccc54)CC3)CC2)c2nc[nH]c2c1`, in test [1], the maximum response (Emax) came to 0%. Further, the inhibitory constant (Ki) in test [2] is 75 nM; in test [3], 1.7 nM.

On to `CCCn1cc([C@H]2CC[C@H](N3CCN(c4cccc5[nH]ccc45)CC3)CC2)c2cc(C#N)ccc21`, for which the inhibition in test [6] was found to be 46%.

The molecule `Fc1ccc2[nH]cc([C@H]3CC[C@@H](N4CCN(c5cccc6ncccc56)CC4)CC3)c2c1` returned an Emax in test [1] of 0%. In addition, the results for the inhibition constant (Ki) in test [2] and in test [3] were 13.8 nM and 97.2 nM, respectively.

On to `Fc1ccc2c(c1)[nH]cc2[C@H]1CC[C@@H](N2CCN(c3cccc4[nH]ccc34)CC2)CC1`, for which the Emax in test [1] came out at 0%.

`Cc1[nH]c2ccccc2c1[C@H]1CC[C@H](N2CCN(c3cccc4[nH]ccc34)CC2)CC1`: the inhibition in test [5] turned out to be 12%.

In test [5], `Fc1cccc2[nH]cc([C@H]3CC[C@H](N4CCN(c5cccc6[nH]ccc56)CC4)CC3)c12` came in with an inhibition of 0%.

Molecule `COc1ccc2[nH]cc([C@H]3CC[C@@H](N4CCN(c5cccc6[nH]ccc56)CC4)CC3)c2c1` registered an inhibition in test [5] of 25%.

As for `CC(C)n1cc([C@H]2CC[C@H](N3CCN(c4cccc5[nH]ccc45)CC3)CC2)c2cc(C#N)ccc21`, the inhibition in test [6] is 46%; in test [5], 16%.

Regarding `Fc1ccc2[nH]cc([C@H]3CC[C@H](N4CCN(c5cccc6ccccc56)CC4)CC3)c2c1`, the Emax in test [1] worked out at 71%. The molecule further displayed a Ki in test [3] of 42.6 nM. Moreover, in test [7], the inhibition was determined as 38%.

As for `FC(F)(F)c1nc2c(N3CCN([C@H]4CC[C@H](c5c[nH]c6ccccc65)CC4)CC3)cccc2[nH]1`, in test [1], the Emax was 29%. Moreover, the inhibition constant Ki is 75 nM in test [2] and 3.6 nM in test [3].

In the case of `c1cc(N2CCN([C@H]3CC[C@@H](c4c[nH]c5ccccc54)CC3)CC2)c2cc[nH]c2c1`, the maximal effect (Emax) in test [1] stood at 0%.

In the case of `Cc1nc2c(N3CCN([C@H]4CC[C@H](c5c[nH]c6ccccc65)CC4)CC3)cccc2[nH]1`, the Emax in test [1] is 0%. In addition, the inhibition constant Ki was determined as 115 nM in test [2] and 3 nM in test [3].

Consider `Clc1ccc2[nH]cc([C@H]3CC[C@@H](N4CCN(c5cccc6[nH]ccc56)CC4)CC3)c2c1`, for which the inhibition in test [5] was 28%.

`Fc1ccc2[nH]cc([C@H]3CC[C@H](N4CCN(c5cccc6ncccc56)CC4)CC3)c2c1` showed a maximal response (Emax) in test [1] of 0%. Also, the inhibition constant (Ki) was 73 nM in test [2] and 8.3 nM in test [3].

Turning to `Fc1cccc2[nH]cc([C@H]3CC[C@@H](N4CCN(c5cccc6[nH]ccc56)CC4)CC3)c12`, in test [5], the inhibition amounted to 27%.

In test [1], `N#Cc1ccc2[nH]cc([C@H]3CC[C@@H](N4CCN(c5cccc6cccnc56)CC4)CC3)c2c1` had a maximum response (Emax) of 23%. The molecule also came in with a Ki in test [2] of 1.3 nM.

Molecule `CC(C)n1cc([C@H]2CC[C@@H](N3CCN(c4cccc5[nH]ccc45)CC3)CC2)c2cc(C#N)ccc21` gave a Ki in test [2] of 38.5 nM.

In test [1], `c1cc(N2CCN([C@H]3CC[C@@H](c4c[nH]c5ccccc54)CC3)CC2)c2nc[nH]c2c1` displayed a maximal response (Emax) of 0%. Moreover, the results for the inhibitory constant (Ki) in test [2] and in test [3] were 13 nM and 7.9 nM, respectively.

Consider `N#Cc1ccc2[nH]cc([C@H]3CC[C@@H](N4CCN(c5cccc6ncccc56)CC4)CC3)c2c1`, for which the Emax in test [1] was found to be 0%. The results for the inhibition constant Ki in test [2] and in test [3] were 3.5 nM and 58.1 nM, respectively.

Molecule `C1=Nc2cccc(N3CCN([C@H]4CC[C@H](c5c[nH]c6ncccc65)CC4)CC3)c2C1` gave a Ki in test [3] of 7.8 nM. In test [5], this molecule had an inhibition of 18%.

Take `Fc1ccc2[nH]cc([C@H]3CC[C@H](N4CCN(c5cccc6cccnc56)CC4)CC3)c2c1`: the maximal response (Emax) in test [1] was 66%.

As to `Cn1cc([C@H]2CC[C@H](N3CCN(c4cccc5[nH]ccc45)CC3)CC2)c2cc(F)ccc21`, the Ki in test [2] was 67.5 nM; in test [3] it was 90 nM.

For `c1cc(N2CCN([C@H]3CC[C@H](c4c[nH]c5ccccc54)CC3)CC2)c2cc[nH]c2c1`, in test [3], the Ki was found to be 5.3 nM.

As for `Cn1cc([C@H]2CC[C@@H](N3CCN(c4cccc5[nH]ccc45)CC3)CC2)c2cc(F)ccc21`, the inhibition constant (Ki) in test [2] stood at 11.6 nM; in test [3], 124 nM.

In test [1], `Fc1ccc2[nH]cc([C@H]3CC[C@@H](N4CCN(c5cccc6cccnc56)CC4)CC3)c2c1` had an Emax of 20%.

In test [1], `Cc1nc2c(N3CCN([C@H]4CC[C@@H](c5c[nH]c6ccccc65)CC4)CC3)cccc2[nH]1` yielded a maximal effect (Emax) of 0%. For the same molecule, the results for the Ki in test [2] and in test [3] were 61 nM and 10.7 nM, respectively.

In test [1], `N#Cc1ccc2[nH]cc([C@H]3CC[C@H](N4CCN(c5cccc6ncccc56)CC4)CC3)c2c1` showed an Emax of 3%. For the same molecule, the Ki in test [2] was 4.9 nM; in test [3], 6.2 nM.

As for `Fc1ccc2c(c1)[nH]cc2[C@H]1CC[C@H](N2CCN(c3cccc4[nH]ccc34)CC2)CC1`, in test [3], the inhibitory constant (Ki) came to 5.4 nM.

`N#Cc1ccc2[nH]cc([C@H]3CC[C@H](N4CCN(c5cccc6cccnc56)CC4)CC3)c2c1`: in test [1], the Emax is 0%. The molecule also had a Ki in test [2] of 20 nM.

`N#Cc1ccc2[nH]cc([C@H]3CC[C@H](N4CCN(c5cccc6[nH]ccc56)CC4)CC3)c2c1` returned a maximal response (Emax) in test [1] of 11%. In test [2], this molecule showed an inhibition constant Ki of 8.5 nM.

The molecule `N#Cc1ccc2[nH]cc([C@H]3CC[C@@H](N4CCN(c5cccc6[nH]ccc56)CC4)CC3)c2c1` had an Emax in test [1] of 0%. This molecule also displayed an inhibition constant Ki in test [2] of 1.6 nM.

In test [1], `N#Cc1ccc2[nH]cc([C@H]3CC[C@@H](N4CCN(c5cccc6nccnc56)CC4)CC3)c2c1` displayed a maximum response (Emax) of 0%. In addition, the inhibition constant Ki was found to be 1.1 nM in test [2] and 156 nM in test [3].

For `N#Cc1ccc2[nH]cc([C@H]3CC[C@H](N4CCN(c5cccc6nccnc56)CC4)CC3)c2c1`, in test [1], the Emax was found to be 11%. Moreover, the Ki in test [2] is 13.6 nM; in test [3], 9.1 nM.

Usually Emax stands for the greatest response seen or fitted, relative to the assay's reference. What is called Ki is the equilibrium dissociation constant of an inhibitor or competing ligand from its target. The term inhibition denotes how much of the control response was suppressed.
